# Laboratory results from US8772449B2, “Cell-penetrating peptides” (Toray Industries, Inc., priority 2009, dated 2014).
# Where two headings read alike, the source gives them in different places. Ends that are not written are not given here.
# Experiments:
# [1] = Intestinal administration of insulin with peptide (ileal loop) to rats; format: in vivo; conditions: Example 8, insulin 50 IU/kg with 0.5 mM peptide, male SD rat, FIG. 10
# Protocol: A silicone tube was […] cm distant from the ileocecal junction toward the ileum, and a feeding needle was inserted at a position about 10 cm upward therefrom. Further, sutures were passed through an area of 6 cm between these. From the feeding needle, 20 ml of phosphate buffered saline (PBS) at pH 7.4 prewarmed to 37° C. was fed at a flow rate of 5 ml/min. to allow discharging of the contents, and the silicone tube was plugged, followed by administering 1 ml of PBS prewarmed to 37° C. from the feeding needle and keeping it retained for 30 minutes. After the administration, the feeding needle was quickly plugged and the intestinal tract was returned into the abdominal cavity, followed by closing the site of incision with a clip and allowing the rat to keep still. […] The rat during the experiment was fixed on its back on a hot plate kept at 37° C. by a hot-water circulating pump to regulate the body temperature. […] Also for rats to which the same quantity of the insulin solution alone was subcutaneously administered, the blood collection and the measurement were carried out in the same manner.
# [2] = Intranasal administration of interferon β with peptide to rats (plasma interferon β level); conditions: Example 6, interferon β 0.18×10^6 IU/kg alone or with 0.5 mM peptide, FIG. 7
# [3] = test system: nasal cavity; assay: Evaluation of damage to nasal cavity (LDH leakage into washing solution); conditions: Example 9; mixed solution of peptide and insulin, intranasal, washing 15 minutes later, FIG. 11
# [4] = Intranasal administration of exendin-4 with peptide to rats (plasma exendin-4 level); conditions: Example 7, exendin-4 0.25 mg/kg alone or with 0.5 mM peptide, FIG. 8
# [5] = Intranasal administration of insulin with peptide to rats (blood glucose, plasma insulin, bioavailability, AUC); conditions: Example 4, insulin 1 IU/kg alone or mixed with 0.5 mM peptide (L-body), male SD rat, FIG. 5
# [6] = test system: HeLa cells; assay: Evaluation of peptide permeability into cells (fluorescein-labeled peptide incorporated into HeLa cells); format: cell-based
# Protocol: In DMEM medium supplemented with 10% FBS, 0.2 ml of HeLa cells were plated on a 96-well glass bottom plate, and the cells were cultured at 37° C. for 48 to 72 hours to allow the cells to adhere to the bottom surface. After 3 times of washing with 200 μl of PBS, 50 μl of DMEM medium containing each of the peptides of SEQ ID NOs:1 to 6 labeled with fluorescein at the amino terminus (contract synthesis by Sigma-Genosys) at a final concentration of 5 μM and FBS at a final concentration of 10% was added to each well. The plate was incubated in a CO2 incubator for 3 hours and then washed 3 times with DMEM medium supplemented with 10% FBS, followed by addition of 50 μl of a lysis solution (10 mM Tris-HCl, 5 mM EDTA, 100 mM NaCl, 1% SDS, 100 μg/ml proteinase K) and 1 hour of incubation at room temperature, to decompose the cells and the peptides incorporated into the cells. The whole lysis solution was recovered, and the amount of fluorescein incorporated into the cells was measured using a fluorescence intensity measuring apparatus (HORIBA FLUOROMAX-3) at an excitation wavelength of 494 nm and a fluorescence wavelength of 512 nm.
# (§1) Further, the amount of fluorescein incorporated into the cells was measured by the same method as in Example 1.
# [7] = test system: HeLa cells; assay: Evaluation of promotion of insulin transfer into cells (rhodamine-labeled insulin incorporated, fluorescence intensity of lysate); format: cell-based; conditions: for incorporation of rhodamine-labeled insulin into the cells (in words): Example 2, rhodamine-labeled human insulin 100 μg/ml alone or with peptide, 3 hours, FIG. 2
# Protocol: In DMEM medium supplemented with 10% FBS, 0.2 ml of HeLa cells were plated on a 96-well glass bottom plate, and the cells were cultured at 37° C. for 48 to 72 hours to allow the cells to adhere to the bottom surface.
# (§2) The rhodamine-labeled insulin was prepared by the following method. […] To the resulting solution, 4 mg of NHS-rhodamine (Pierce) dissolved in 0.5 ml of DMSO was added, and the reaction was allowed to proceed at room temperature overnight.
# as §1
# [8] = test system: HeLa cells; assay: Localization of rhodamine-labeled insulin in HeLa cells by confocal laser microscope; format: cell-based; conditions: Example 2, peptide added together with rhodamine-labeled insulin, FIG. 12
# Protocol: as §2
# [9] = test system: HeLa cells; assay: Evaluation of promotion of transfer of polystyrene beads into cells; format: cell-based; conditions: Example 3, beads alone or with peptide 1 μM, 3 hours, FIG. 3
# Protocol: In DMEM medium supplemented with 10% FBS, 0.2 ml of HeLa cells were plated on a 96-well glass bottom plate, and the cells were cultured at 37° C. for 48 to 72 hours to allow the cells to adhere to the bottom surface. After 3 times of washing with 200 μl of PBS, 50 μl of DMEM medium containing each of the peptides of SEQ ID NOs:1 to 6 labeled with fluorescein at the amino terminus (contract synthesis by Sigma-Genosys) at a final concentration of 1 μM, fluorescent polystyrene beads (Fluorospheres Carboxylated Microbeads, 0.1 μm; manufactured by Molecular probes, Inc.) at a final concentration of 1 μl/well and 10% FBS was added to each well. The plate was incubated in a CO2 incubator for 3 hours and then washed 3 times with DMEM medium supplemented with 10% FBS, followed by addition of 50 μl of a lysis solution (10 mM Tris-HCl, 5 mM EDTA, 100 mM NaCl, 1% SDS, 100 μg/ml proteinase K) and 1 hour of incubation at room temperature, to decompose the cells. The whole lysis solution was recovered, and the amount of fluorescent polystyrene beads incorporated into the cells was measured using a fluorescence intensity measuring apparatus at an excitation wavelength of 580 nm and a fluorescence wavelength of 605 nm.
# [10] = rat, in vivo, 0.25 mg/kg
substance,measurement,setting,value
KWFRIQMQIKKWRNRR [SEQ ID NO:4],"blood insulin level after intestinal administration, compared to insulin alone",[1],evident increase
same,plasma interferon β level after intranasal administration,[2],transfer of interferon β into the blood from immediately after the administration
"RWFKIQMQIRRWKNKK [SEQ ID NO:1, R W F K I Q M Q I R R W K N K K]","blood insulin level after intestinal administration, compared to insulin alone",[1],evident increase
same,"release of LDH from the nasal cavity, compared to 5% (w/v) sodium taurodeoxycholate",[3],significantly lower
same,plasma exendin-4 level after intranasal administration,[4],transfer of exendin-4 into the blood from immediately after the administration
same,plasma interferon β level after intranasal administration,[2],transfer of interferon β into the blood from immediately after the administration
same,blood insulin level after intranasal administration,[5],transfer of insulin into the blood was observed from immediately after the administration
"SEQ ID NO:6: Random peptide, cell membrane non-permeable; sequence not printed (EYDLSTAGGAAAC; Synthetic peptide random peptide)",incorporation of fluorescein-labeled peptide into the cells (in words),"[6]; Example 1, fluorescein-labeled peptide 5 μM, 3 hours, FIG. 1",hardly incorporated into the cells
same,"fluorescein incorporated into the cells, of the fluorescein added","[6]; Example 12, fluorescein-labeled peptides, incubation 5 hours, FIG. 15",about 0.2%
same,incorporation of rhodamine-labeled insulin into the cells (in words),[7],almost no incorporation
same,"rhodamine-labeled insulin incorporated into the cells, of the amount added","[7]; Example 12, fluorescein-labeled peptides added together with rhodamine-labeled insulin, incubation 5 hours, FIG. 16",about 0.2%
same,"permeation of rhodamine-labeled insulin into the cells, confocal laser microscope",[8],did not allow permeation
same,incorporation of fluorescent polystyrene beads into the cells (in words),[9],almost no incorporation
exendin-4,plasma exendin-4 level after intranasal administration,[10],almost no increase
"rhodamine-labeled insulin: human insulin reacted with NHS-rhodamine (Pierce); fluorescent probe, added alone",incorporation of rhodamine-labeled insulin into the cells (in words),[7],almost no incorporation
